Measured values as given in BindingDB's records for doi:10.7270/Q25B01BH (D3R/Abbott, 2015).

target: Cyclin-dependent kinase 2 (Homo sapiens, UniProt P24941); test: OctetRed_Method1
Description: OctetRed_Method1

Kd, > 100 µM:
COc1cccc(-n2nnnc2SCC(=O)Nc2c(C)cc(C)cc2C)c1 [CS81]
COc1ccc(OCC(=O)Nc2cc(-c3nn4c(C)nnc4s3)ccc2C)cc1 [CS36]
O=S(=O)(NCc1ccccn1)c1ccc(Cl)c(Cl)c1Cl [CS116]
COc1cccc(NC(=O)CSc2nnnn2C)c1 [CS27]
COc1ccc(-c2nnc(SCC(=O)Nc3c(F)cc(F)cc3Br)n2C)cc1 [CS78]
CSc1ccc(S(=O)(=O)NCc2ccccn2)cc1 [CS230]
CCn1c(SCC(=O)Nc2cccc(OC)c2)nnc1-c1ccncc1 [CS95]
Cc1c(NC(=O)C2CCCN2S(=O)(=O)c2ccccc2)c(=O)n(-c2ccccc2)n1C (centres undefined) [CS68]
Cc1cc(C)c(S(=O)(=O)N(C)CC(=O)N2CCC(C(N)=O)CC2)c(C)c1 [CS152]
CCOc1ccc(C(C)=O)cc1Cc1c(O)nc(N)nc1O [CS55]
CCc1nnc(NS(=O)(=O)c2ccc(NC(=O)c3ccc(F)cc3)cc2)s1 [CS31]
COc1cc(NC(=O)CSc2nncn2C)cc(OC)c1OC [CS202]
COc1ccccc1NC(=O)CSc1nnc(-c2ccccc2Cl)n1-c1ccccc1 [CS222]
O=C1c2ccccc2C(=O)N1CCCc1nc(-c2cccc([N+](=O)[O-])c2)no1 [CS148]
CN1CCN(C(=O)CN(c2cc(C(F)(F)F)ccc2Cl)S(=O)(=O)c2ccccc2)CC1 [CS65]
Cc1c(NS(=O)(=O)c2cccc3nonc23)c(=O)n(-c2ccccc2)n1C [CS150]
CCn1c(SCC(=O)Nc2ccccc2OC)nnc1-c1c[nH]c2ccccc12 [CS213]
Cc1cccc(NS(=O)(=O)c2cc(C(=O)Nc3ccccc3C(=O)N3CCOCC3)ccc2Cl)c1 [CS232]
COc1ccccc1-n1nnnc1SCC(=O)Nc1ccccc1SC [CS197]
Cc1cc(C)c(S(=O)(=O)NCc2ccccn2)cc1C [CS105]
COc1ccc(NC(=O)CCSc2nnc3scc(-c4ccc(C)cc4)n23)cc1 [CS37]
COc1ccc2c(C)nc(Nc3nc(C)cc(O)n3)nc2c1
O=C(CSc1nnc(-c2ccccc2O)n1-c1ccccc1)Nc1cccc(C(=O)O)c1 [CS166]
O=C(CC1OCCN(Cc2ccccc2)C1=O)Nc1ccc2c(c1)OCCO2 (centres undefined) [CS208]
O=C(CSc1nnc(-c2ccc([N+](=O)[O-])cc2)n1-c1ccccc1)N1CCOCC1 [CS58]
O=S(=O)(NCc1ccccn1)c1cc(Cl)c(Cl)cc1Cl [CS104]
COc1ccc(C(=O)C(C)Oc2cccc(NC(=O)c3cccc([N+](=O)O)c3)c2)cc1 (centres undefined) [CS112]
CCn1c(SCC(=O)Nc2ccccc2OC)nnc1-c1ccco1 [CS119]
CCOC(=O)c1cnc(Nc2nc3ccccc3o2)nc1CN1CCN(c2ccccc2)CC1 [CS196]
O=C(CSc1nnc(-c2ccncc2)o1)Nc1ccc(F)cc1 [CS234]
CCOc1ccc2nc(SCC(=O)Nc3c(C)n(C)n(-c4ccccc4)c3=O)sc2c1 [CS49]
COc1ccc(-n2c(SCC(N)=O)nnc2-c2cccs2)cc1 [CS73]
Cn1c(Cc2ccccc2)nnc1Sc1ccc([N+](=O)[O-])cc1C(=O)N1CCOCC1 [CS188]
Cn1nc([N+](=O)[O-])nc1Oc1ccccc1C(=O)N1CCOCC1 [CS231]
O=C(Cn1cnc([N+](=O)[O-])n1)Nc1ccc(N2CCOCC2)c(Cl)c1 [CS200]
COC(=O)c1ccc(NC(=O)CSc2nnc(-c3ccc(NC(C)=O)cc3)n2C)cc1 [CS59]
CCn1c(SCC(=O)Nc2cccc(C(C)=O)c2)nnc1-c1ccncc1 [CS66]
O=C(Cc1ccccc1[N+](=O)[O-])Nc1ccccc1C(=O)N1CCOCC1 [CS209]
CS(=O)(=O)N(CC(=O)Nc1ccccc1C(=O)N1CCOCC1)c1ccc(Cl)cc1 [CS160]
O=C(COc1ccccc1[N+](=O)[O-])Nc1ccccc1N1CCOCC1 [CS46]
O=C(Cn1c(NCCO)nc2ccccc21)c1cccc([N+](=O)[O-])c1 [CS80]
COc1cc([N+](=O)[O-])ccc1NC(=O)CN1CCOCC1 [CS142]
CC(=O)Nc1ccc(S(=O)(=O)Nc2c(C)nn(-c3ccccc3)c2C)cc1 [CS70]
CCc1ccccc1NC(=O)CSc1nnc(-c2cccc(OC)c2)n1C [CS169]
O=S(=O)(NCCSc1ccccn1)c1ccc(Br)cc1 [CS33]
Cc1ccnc(NS(=O)(=O)c2ccc(NC(=O)c3cncc(Br)c3)cc2)n1 [CS165]
COC(=O)c1ccccc1NC(=O)CSc1nnc(C23C[C@H]4C[C@@H](C2)C[C@@H](C3)C4)n1C [CS38]
O=C(Nc1ccc(S(=O)(=O)Nc2ncccn2)cc1)c1c(Cl)cccc1Cl [CS93]
CN1CCN(C(=O)CN(C)S(=O)(=O)c2ccc3ccccc3c2)CC1 [CS173]
COc1ccccc1NC(=O)CSc1nnc(-c2ccc(F)cc2)n1C [CS98]
CN1CCN(C(=O)c2ccccc2N(Cc2ccccc2)S(C)(=O)=O)CC1 [CS76]
COc1ccc([N+](=O)[O-])cc1NC(=O)C(C)Oc1ccccc1C (centres undefined) [CS177]
Cc1nc2ncnn2c(O)c1NS(=O)(=O)c1ccc(Br)cc1 [CS237]
COc1ccc(CC(NC(C)=O)c2ccc3cccnc3c2O)cc1OC (centres undefined) [CS32]
CN(CC(=O)Nc1ccccc1C(=O)N1CCCC1)CS(=O)(=O)c1ccc(Br)cc1 [CS130]
Cc1ccc(S(=O)(=O)Nc2ccccc2CNc2cnc3ccccc3c2)cc1 [CS100]
COc1ccc2[nH]cc(CCNC(=O)Nc3ccc(Cl)c(Cl)c3)c2c1 [CS236]
COc1ccc(NC(=O)CSc2nnnn2C)cc1 [CS53]
CC1CCN(S(=O)(=O)c2ccc(Cl)c(C(=O)Nc3ccc(C(=O)O)cc3)c2)CC1 [CS34]
CC(Sc1nc2ccccc2[nH]1)C(=O)Nc1ccc(S(N)(=O)=O)cc1 (centres undefined) [CS140]
NC(=O)c1ccc(NCCCN2CCOCC2)c([N+](=O)[O-])c1 [CS69]
COc1ccc(NC(=O)CSc2nnc(-c3ccncc3)[nH]2)cc1 [CS41]
COc1ccc(C(=O)CSc2nnc(-c3ccc(OC)c(OC)c3)n2-c2ccccc2)cc1 [CS67]
COc1ccccc1CNC(=O)CSc1nnnn1-c1c(C)cccc1C [CS184]
Cc1ccc(NS(=O)(=O)c2cc(C(=O)Nc3ccccc3C(=O)N3CCOCC3)ccc2Cl)c(C)c1 [CS238]
COC(=O)c1ccc(NC(=O)CSc2nnnn2-c2ccccc2OC)cc1 [CS77]
COC(=O)c1ccccc1NC(=O)CSc1nnc(-c2ccc(OC)cc2)n1C [CS72]
COc1cc(OC)c(NC(=O)CSc2nnc(-c3ccncc3)n2C)cc1Cl [CS96]
Cn1c(COc2cccc3cccnc23)nnc1SCC(N)=O [CS64]
O=C(O)c1cccc(CSc2nnc(-c3ccncc3)o2)c1 [3-({[5-(pyridin-4-yl)-1,3,4-oxadiazol-2-yl]sulfanyl}methyl)benzoic acid]
COc1ccc(NC(=O)CN2CCOCC2)c([N+](=O)[O-])c1 [CS189]
COc1ccccc1NC(=O)CSc1nnc(-c2ccc([N+](=O)[O-])cc2)n1-c1ccccc1 [CS82]
COc1cc(OC)c(NC(=O)CSc2nnc(-c3ccccc3)n2C)cc1Cl [CS47]
COc1cc(OC)c(NC(=O)CSc2nnc(-c3ccncc3)n2-c2ccccc2)cc1Cl [CS109]
O=C(Cn1ccc([N+](=O)[O-])n1)N1CCCc2ccccc21 [CS154]
COc1ccccc1NC(=O)CSc1nncn1C [CS198]
CC(=O)c1cccc(NC(=O)CSc2nnc(-c3cc4ccccc4cc3O)n2C)c1 [CS110]
COC(=O)c1ccccc1Oc1nc(NC(C)C)nc(NC(C)C)n1 [CS92]
COc1cc(-c2nnc(SCC(N)=O)n2C)cc(OC)c1OC [CS175]
Cc1nonc1OCCNc1cc(N2CCOCC2)ccc1[N+](=O)[O-] [CS204]
O=C(Cn1nc(-c2cccc([N+](=O)[O-])c2)c2ccccc2c1=O)NCC1CCCO1 (centres undefined) [CS102]
CS(=O)(=O)c1ccc(NC(=O)CSc2nnc(-c3ccccc3F)n2-c2ccccc2)cc1 [CS74]
CC(=O)Nc1cccc(-c2nnc(SCC(=O)Nc3ccc(C(C)=O)cc3)n2C)c1 [CS71]
COc1ccc(NC(=O)c2ccco2)cc1NC(=O)c1cccnc1 [CS85]
